Columns and labels:
[1] = molecular target: c-Kit kinase (Homo sapiens (Human), UniProt P10721); test: c-Kit biochemical assay (AlphaScreen kinase activity)
In short: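 IC50 values come from 8-point, 1:3 compound titrations measuring inhibition of peptide phosphorylation by c-Kit (commercial or His-tagged E. coli-expressed) over 1 h at room temperature, read by AlphaScreen PY30/streptavidin beads. Low-ATP version: 10 μM ATP, 100 nM biotin-(E4Y)3; high-ATP version: 100 μM ATP, 30 nM biotin-(E4Y)10.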

[2] = test system: BaF3-FL KIT D816V or BaF3-FL KIT V560G/D816V cell line; test: Cell-based assays of c-Kit mutant kinase activity (cell proliferation, ATPlite); settings: at least one of the c-kit cell assays of Example 7
In short: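 BaF3 cells dependent on transfected full-length human KIT D816V or V560G/D816V (pCI-Neo, CMV promoter) were seeded at 1×10^4 cells/well and exposed to 8-point 1:3 dilutions from 10 μM top (0.2% DMSO) for three days at 37° C. ATPlite luminescence gave cell number; IC50 from concentration-response.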

c-Kit kinase, sequence (P10721 26-976): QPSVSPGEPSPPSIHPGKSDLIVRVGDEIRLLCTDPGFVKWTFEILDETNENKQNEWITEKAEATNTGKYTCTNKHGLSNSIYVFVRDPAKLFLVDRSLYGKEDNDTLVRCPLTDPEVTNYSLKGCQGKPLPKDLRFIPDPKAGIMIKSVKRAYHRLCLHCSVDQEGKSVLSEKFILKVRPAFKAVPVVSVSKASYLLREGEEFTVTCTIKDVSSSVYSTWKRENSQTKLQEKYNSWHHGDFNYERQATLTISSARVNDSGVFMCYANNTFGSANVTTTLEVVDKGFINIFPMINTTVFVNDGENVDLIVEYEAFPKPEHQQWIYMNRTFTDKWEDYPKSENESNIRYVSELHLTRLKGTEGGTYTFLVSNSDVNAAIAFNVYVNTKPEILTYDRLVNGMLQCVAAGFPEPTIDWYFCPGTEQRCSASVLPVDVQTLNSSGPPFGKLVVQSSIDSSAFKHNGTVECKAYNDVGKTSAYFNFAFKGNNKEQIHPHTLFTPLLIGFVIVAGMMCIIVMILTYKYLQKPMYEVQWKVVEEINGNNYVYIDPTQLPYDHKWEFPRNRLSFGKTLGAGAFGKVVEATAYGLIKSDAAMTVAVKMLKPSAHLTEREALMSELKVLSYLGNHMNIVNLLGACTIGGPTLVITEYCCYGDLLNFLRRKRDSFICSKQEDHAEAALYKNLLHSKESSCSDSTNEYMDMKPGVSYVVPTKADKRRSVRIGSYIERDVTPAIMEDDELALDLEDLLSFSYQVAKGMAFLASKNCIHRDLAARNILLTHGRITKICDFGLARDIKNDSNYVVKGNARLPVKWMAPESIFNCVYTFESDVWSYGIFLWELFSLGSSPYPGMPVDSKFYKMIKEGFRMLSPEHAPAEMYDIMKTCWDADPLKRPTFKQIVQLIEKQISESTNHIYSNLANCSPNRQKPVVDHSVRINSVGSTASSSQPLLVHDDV

| SMILES | IC50 [1] [µM] | IC50 [2] [nM] |
| --- | --- | --- |
| Cc1nc(C2(C)CCN(c3ncnc4[nH]c(-c5ccc(C#N)cc5)cc34)CC2)[nH]c1-c1cccc(OC(F)F)c1 [P-3194, 4-[4-[4-[5-[3-(difluoromethoxy)phenyl]-4-methyl-1H-imidazol-2-yl]-4-methyl-1-piperidyl]-7H-pyrrolo[2,3-d]pyrimidin-6-yl]benzonitrile] | 1 to 10 | < 10000 |
| Cc1nc(C2(C)CCN(c3ncnc4[nH]c(-c5cnn(C(F)F)c5)cc34)CC2)[nH]c1-c1cccc(OC(F)F)c1 [P-3192, 4-[4-[5-[3-(difluoromethoxy)phenyl]-4-methyl-1H-imidazol-2-yl]-4-methyl-1-piperidyl]-6-[1-(difluoromethyl)pyrazol-4-yl]-7H-pyrrolo[2,3-d]pyrimidine] | 0.0001 to 1 | < 10000 |
| CCOc1ccc(-c2[nH]c(C3(C)CCN(c4ncnc5[nH]c(-c6cnn(C(F)F)c6)cc45)CC3)nc2C)cc1F [P-3210, 6-[1-(difluoromethyl)pyrazol-4-yl]-4-[4-[5-(4-ethoxy-3-fluoro-phenyl)-4-methyl-1H-imidazol-2-yl]-4-methyl-1-piperidyl]-7H-pyrrolo[2,3-d]pyrimidine] | 0.0001 to 1 | < 10000 |
| COc1ccc(-c2[nH]c(C3(C)CCN(c4ncnc5[nH]c(-c6ccc(C(N)=O)cc6)cc45)CC3)nc2C)cc1F [P-3212, 4-[4-[4-[5-(3-fluoro-4-methoxy-phenyl)-4-methyl-1H-imidazol-2-yl]-4-methyl-1-piperidyl]-7H-pyrrolo[2,3-d]pyrimidin-6-yl]benzamide] | 0.0001 to 1 | < 10000 |
| COc1cccc(-c2[nH]c(C3(C)CCN(c4ncnc5[nH]c(-c6ccc(N7CCOCC7)nc6)cc45)CC3)nc2C)c1 [P-3223, 4-[5-[4-[4-[5-(3-methoxyphenyl)-4-methyl-1H-imidazol-2-yl]-4-methyl-1-piperidyl]-7H-pyrrolo[2,3-d]pyrimidin-6-yl]-2-pyridyl]morpholine] | 0.0001 to 1 | < 10000 |
| COc1ccc(-c2[nH]c(C3(C)CCN(c4ncnc5[nH]c(-c6cnn(C(F)F)c6)cc45)CC3)nc2C)cn1 [P-3182, 6-[1-(difluoromethyl)pyrazol-4-yl]-4-[4-[5-(6-methoxy-3-pyridyl)-4-methyl-1H-imidazol-2-yl]-4-methyl-1-piperidyl]-7H-pyrrolo[2,3-d]pyrimidine] | 0.0001 to 1 | < 10000 |
| COc1ccc(-c2[nH]c(C3(C)CCN(c4ncnc5[nH]c(-c6ccc(N7CCOCC7)nc6)cc45)CC3)nc2C)cc1F [P-3215, 4-[5-[4-[4-[5-(3-fluoro-4-methoxy-phenyl)-4-methyl-1H-imidazol-2-yl]-4-methyl-1-piperidyl]-7H-pyrrolo[2,3-d]pyrimidin-6-yl]-2-pyridyl]morpholine] | 0.0001 to 1 | < 10000 |
| COc1ccc(-c2cc3c(N4CCC(C)(c5nc(C)c(-c6ccc(C(F)(F)F)cc6)[nH]5)CC4)ncnc3[nH]2)cn1 [P-3178, 6-(6-methoxy-3-pyridyl)-4-[4-methyl-4-[4-methyl-5-[4-(trifluoromethyl)phenyl]-1H-imidazol-2-yl]-1-piperidyl]-7H-pyrrolo[2,3-d]pyrimidine] | 0.0001 to 1 | < 10000 |
| COc1ccc(-c2[nH]c(C3CCN(c4ncnc5[nH]c(-c6ccnc(OC)c6)cc45)CC3)nc2C)cc1 [P-3017, 4-[4-[5-(4-methoxyphenyl)-4-methyl-1H-imidazol-2-yl]-1-piperidyl]-6-(2-methoxy-4-pyridyl)-7H-pyrrolo[2,3-d]pyrimidine] | 0.0001 to 1 | < 10000 |
| Cc1nc(C2(C)CCN(c3ncnc4[nH]c(-c5ccc(OCC(=O)O)cc5)cc34)CC2)[nH]c1-c1cccc(OC(F)F)c1 [P-3233, 2-[4-[4-[4-[5-[3-(difluoromethoxy)phenyl]-4-methyl-1H-imidazol-2-yl]-4-methyl-1-piperidyl]-7H-pyrrolo[2,3-d]pyrimidin-6-yl]phenoxy]acetic acid] | 0.0001 to 1 | < 10000 |
| Cc1nc(C2(C)CCN(c3ncnc4[nH]c(-c5ccc(C#N)cc5)cc34)CC2)[nH]c1-c1ccc(C(F)(F)F)cc1 [P-3177, 4-[4-[4-methyl-4-[4-methyl-5-[4-(trifluoromethyl)phenyl]-1H-imidazol-2-yl]-1-piperidyl]-7H-pyrrolo[2,3-d]pyrimidin-6-yl]benzonitrile] | 0.0001 to 1 | < 10000 |
| Cc1nc(C2(C)CCN(c3ncnc4[nH]c(-c5ccc(NS(C)(=O)=O)cc5)cc34)CC2)[nH]c1-c1cccc(OC(F)F)c1 [P-3232, N-[4-[4-[4-[5-[3-(difluoromethoxy)phenyl]-4-methyl-1H-imidazol-2-yl]-4-methyl-1-piperidyl]-7H-pyrrolo[2,3-d]pyrimidin-6-yl]phenyl]methanesulfonamide] | 0.0001 to 1 | < 10000 |
| COc1ncc(-c2[nH]c(C3CCN(c4ncnc5[nH]c(-c6ccc(C#N)cc6)cc45)CC3)nc2C)cc1F [P-3173, 4-[4-[4-[5-(5-fluoro-6-methoxy-3-pyridyl)-4-methyl-1H-imidazol-2-yl]-1-piperidyl]-7H-pyrrolo[2,3-d]pyrimidin-6-yl]benzonitrile] | 0.0001 to 1 | < 10000 |
| CNC(=O)c1ccc(-c2cc3c(N4CCC(C)(c5nc(C)c(-c6ccc(OC)c(C)c6)[nH]5)CC4)ncnc3[nH]2)cn1 [P-3218, 5-[4-[4-[5-(4-methoxy-3-methyl-phenyl)-4-methyl-1H-imidazol-2-yl]-4-methyl-1-piperidyl]-7H-pyrrolo[2,3-d]pyrimidin-6-yl]-N-methyl-pyridine-2-carboxamide] | 0.0001 to 1 | < 10000 |
| COc1ccc(-c2[nH]c(C3(C)CCN(c4ncnc5[nH]c(-c6cnn(C(F)F)c6)cc45)CC3)nc2C)cc1F [P-3187, 6-[1-(difluoromethyl)pyrazol-4-yl]-4-[4-[5-(3-fluoro-4-methoxy-phenyl)-4-methyl-1H-imidazol-2-yl]-4-methyl-1-piperidyl]-7H-pyrrolo[2,3-d]pyrimidine] | 0.0001 to 1 | < 10000 |
| COc1cccc(-c2[nH]c(C3(C)CCN(c4ncnc5[nH]c(-c6ccc(OCC(=O)O)cc6)cc45)CC3)nc2C)c1 [P-3221, 2-[4-[4-[4-[5-(3-methoxyphenyl)-4-methyl-1H-imidazol-2-yl]-4-methyl-1-piperidyl]-7H-pyrrolo[2,3-d]pyrimidin-6-yl]phenoxy]acetic acid] | 0.0001 to 1 | < 10000 |
| Cc1nc(C2(C)CCN(c3ncnc4[nH]c(-c5ccc(C(N)=O)cc5)cc34)CC2)[nH]c1-c1ccc(C(F)F)cc1 [P-3239, 4-[4-[4-[5-[4-(difluoromethyl)phenyl]-4-methyl-1H-imidazol-2-yl]-4-methyl-1-piperidyl]-7H-pyrrolo[2,3-d]pyrimidin-6-yl]benzamide] | 0.0001 to 1 | < 10000 |
| COc1ccc(-c2[nH]c(C3(C)CCN(c4ncnc5[nH]c(-c6ccc(C#N)nc6)cc45)CC3)nc2C)cc1F [P-3211, 5-[4-[4-[5-(3-fluoro-4-methoxy-phenyl)-4-methyl-1H-imidazol-2-yl]-4-methyl-1-piperidyl]-7H-pyrrolo[2,3-d]pyrimidin-6-yl]pyridine-2-carbonitrile] | 1 to 10 | < 10000 |
| COc1ncc(-c2nc(C3(C)CCN(c4ncnc5[nH]c(C)cc45)CC3)[nH]c2C)cc1F [P-3185, 4-[4-[4-(5-fluoro-6-methoxy-3-pyridyl)-5-methyl-1H-imidazol-2-yl]-4-methyl-1-piperidyl]-6-methyl-7H-pyrrolo[2,3-d]pyrimidine] | 1 to 10 | < 10000 |

Source: patent US9771369B2, “Compounds and methods for kinase modulation, and indications therefor” (Plexxikon Inc., priority 2014, dated 2017)
